Source: article PMC10787407, “Regulation of polysaccharide in Wu‐tou decoction on intestinal microflora and pharmacokinetics of small molecular compounds in AIA rats” (Chinese Medicine, 2024)

Assay: PK study of SM components in plasma of AIA rats by UPLC-MS/MS (MG vs MPS group)
Settings: for AUC 0-t / AUC 0-∞ / C max / T max / t 1/2 / AUC(0-inf) / Cmax / Tmax / half-life: then oral SM 39.2 g crude drug/kg, plasma, mean ± SEM; for Absorption under the intervention of PS: MPS vs MG group; for Cmax: C max; for Tmax: T max
[1] = MG group: AIA rats, saline 21 days
[2] = MPS group: AIA rats, oral PS 9.8 g crude drug/kg/day 21 days
[3] = MPS group compared with the MG group, AIA rats
[4] = Sprague-Dawley, rat, po, 39.2 g/kg/day, AUC 0-t, MPS group: AIA rats, oral PS 9.8 g crude drug/kg/day 21 days
[5] = Sprague-Dawley, rat, po, 39.2 g/kg/day, MG group: AIA rats, saline 21 days
[6] = Sprague-Dawley, rat, po, 39.2 g/kg/day, MPS group: AIA rats, oral PS 9.8 g crude drug/kg/day 21 days
[7] = Sprague-Dawley, rat, po, 39.2 g/kg/day, t 1/2, MG group: AIA rats, saline 21 days
[8] = Sprague-Dawley, rat, po, 39.2 g/kg/day, t 1/2, MPS group: AIA rats, oral PS 9.8 g crude drug/kg/day 21 days
[9] = Sprague-Dawley, rat, po, 39.2 g/kg/day, AUC 0-t, MG group: AIA rats, saline 21 days

Experimental: In the PK study, 12 SD rats were divided into model group (MG group) and model + polysaccharide group (MPS group). Rats in the MPS group were given PS (9.8 g crude drug/kg/day) by oral administration, while rats in the MG group received the same amount of saline. After continuous administration for 21 days, rats in both groups were given SM (39.2 g crude drug/kg/day), and two groups of rats were subjected to a PK study.
The supernatant was collected and dried with N2, redissolved with 100 μL methanol, and centrifuged again after 10 min centrifugation at 4 °C, 13000 rpm. Then the supernatant was collected for UPLC-MS /MS analysis.
The Shimadzu UPLC-MS/MS system was used for the PK study. […] The multiple reaction monitoring (MRM) mode was used both in positive and negative mode. The MS parameters were as follows: flow rate of heating gas 10 L/min, flow rate of drying gas 10 L/min, flow rate of atomizing gas 3 L/min, interfacial temperature 300 ℃, DL temperature 250 ℃.
Separation was performed using a Waters ACQUITY UPLC BEH C18 column (2.1 mm × 100 mm, 1.7 μm). The mobile phase was 0.1% formic acid water (v/v) (A) and acetonitrile (B).

| Structure (SMILES) | AUC 0-t [1] | AUC 0-∞ [1] | C max [1] | T max [1] | t 1/2 [1] | AUC 0-t [2] | AUC 0-∞ [2] | C max [2] | T max [2] | t 1/2 [2] | Change of C max after oral PS [3] | Absorption under the intervention of PS (AIA rats) | AUC 0-t [4] | AUC(0-inf) [5] | AUC(0-inf) [6] | Cmax [5] | Cmax [6] | Tmax [5] | Tmax [6] | half-life [8] | further results |
| --- | --- | --- | --- | --- | --- | --- | --- | --- | --- | --- | --- | --- | --- | --- | --- | --- | --- | --- | --- | --- | --- |
| COC[C@]12CN(C)C3[C@@H]4[C@H](OC)[C@H]1[C@@]3([C@@H](OC)C[C@H]2O)[C@@H]1C[C@@]2(O)[C@H](OC(=O)c3ccccc3)[C@@H]1[C@]4(O)[C@@H](O)[C@@H]2OC [Benzoylmesaconitine] | 21.413 ± 1.140 ng·h/mL | 23.447 ± 1.422 ng·h/mL | 14.305 ± 3.689 ng/mL | 0.139 ± 0.079 h | 3.530 ± 0.873 h | 25.368 ± 7.147 ng·h/mL | 25.465 ± 7.145 ng·h/mL | 15.899 ± 4.818 ng/mL | 0.083 ± 0.001 h | 1.723 ± 0.296 h | – | – | – | – | – | – | – | – | – | – | – |
| COc1ccc(-c2coc3cc(O)ccc3c2=O)cc1 [Formononetin] | 15.278 ± 1.823 ng·h/mL | – | – | – | – | – | – | – | – | – | reduced | decreased | 12.3 ± 1.98 ng·h/mL | 17.5 ± 1.69 ng·h/mL | 13.6 ± 1.93 ng·h/mL | 7.39 ± 1.16 ng/mL | 4.5 ± 0.902 ng/mL | 0.083 ± 0.001 h | 0.25 ± 0.001 h | 3.76 ± 0.557 h | half-life [7]: 4.27 ± 0.406 h |
| O=C(/C=C/c1ccc(O)cc1)c1ccc(O)cc1O [Isoliquiritigenin] | – | – | – | – | – | – | – | – | – | – | significantly increased | increased | 9.47 ± 1.45 ng·h/mL | 9.61 ± 1.6 ng·h/mL | 10.5 ± 1.27 ng·h/mL | 4 ± 0.545 ng/mL | 5.42 ± 0.422 ng/mL | 0.083 ± 0.001 h | 0.167 ± 0.083 h | 3.87 ± 0.889 h | AUC 0-t [9]: 8.76 ± 1.42 ng·h/mL; half-life [7]: 3.12 ± 0.571 h |
| CC1(C)[C@@H](O)CC[C@]2(C)[C@H]3C(=O)C=C4[C@@H]5C[C@@](C)(C(=O)O)CC[C@]5(C)CC[C@@]4(C)[C@]3(C)CC[C@@H]12 [Glycyrrhetinic acid] | – | – | – | – | – | – | – | – | – | – | – | – | 30500 ng·h/mL | 32900 ng·h/mL | 34500 ng·h/mL | 7830 ± 283 ng/mL | 11600 ng/mL | 2 ± 0.001 h | 2 ± 0.001 h | 10.8 ± 1.96 h | AUC 0-t [9]: 28800 ng·h/mL; half-life [7]: 10.7 ± 3.72 h |
| O=C1C[C@@H](c2ccc(O)cc2)Oc2cc(O)ccc21 [Liquiritigenin] | 48.549 ± 6.497 ng·h/mL | 49.404 ± 6.315 ng·h/mL | 25.519 ± 7.560 ng/mL | 0.139 ± 0.079 h | 1.841 ± 0.242 h | 47.195 ± 4.360 ng·h/mL | 47.548 ± 4.374 ng·h/mL | 23.367 ± 4.695 ng/mL | 0.083 ± 0.001 h | 1.448 ± 0.025 h | – | – | – | – | – | – | – | – | – | – | – |
| COC[C@@]12CC[C@H](OC)[C@]34C([C@H]([C@H](OC)[C@H]13)[C@]1(O)[C@H]3[C@@H](OC(=O)c5ccccc5)[C@](O)(C[C@H]34)[C@@H](OC)[C@@H]1O)N(C)C2 [Benzoylhypaconine] | 1.018 ± 0.049 ng·h/mL | 1.123 ± 0.062 ng·h/mL | 0.467 ± 0.108 ng/mL | 0.083 ± 0.001 h | 3.938 ± 0.322 h | 1.394 ± 0.255 ng·h/mL | 1.604 ± 0.229 ng·h/mL | 0.861 ± 0.160 ng/mL | 0.083 ± 0.001 h | 4.742 ± 0.904 h | increased | increased | – | – | – | – | – | – | – | – | Change of AUC 0-∞ after oral PS [3]: increased |
| CCN1C[C@]2(COC)CC[C@H](OC)[C@]34C1[C@H](C[C@H]23)[C@@]1(O)C[C@H](OC)[C@H]2C[C@@H]4[C@@H]1[C@H]2O [Talatizamine] | 21.996 ± 1.581 ng·h/mL | 30.766 ± 4.871 ng·h/mL | 3.376 ± 0.595 ng/mL | 0.417 ± 0.276 h | 6.242 ± 1.838 h | 22.338 ± 1.786 ng·h/mL | 28.106 ± 2.545 ng·h/mL | 3.576 ± 0.320 ng/mL | 0.292 ± 0.093 h | 5.163 ± 1.483 h | – | – | – | – | – | – | – | – | – | – | – |
| CC1(C)[C@@H](O[C@H]2O[C@H](C(=O)O)[C@@H](O)[C@H](O)[C@H]2O[C@@H]2O[C@H](C(=O)O)[C@@H](O)[C@H](O)[C@H]2O)CC[C@]2(C)[C@H]3C(=O)C=C4[C@@H]5C[C@@](C)(C(=O)O)CC[C@]5(C)CC[C@@]4(C)[C@]3(C)CC[C@@H]12 [Glycyrrhizic acid] | – | – | – | – | 7.605 ± 1.142 h | – | – | – | – | – | significantly increased | increased | 29600 ng·h/mL | 25900 ng·h/mL | 27400 ng·h/mL | 3800 ± 304 ng/mL | 5200 ± 706 ng/mL | 0.5 ± 0.001 h | 0.667 ± 0.236 h | 7.25 ± 0.086 h | AUC 0-t [9]: 23100 ng·h/mL |
| CCN1C[C@]2(COC)CC[C@H](O)[C@]34C1[C@H]([C@H](OC)[C@H]23)[C@@]1(O)C[C@H](OC)[C@H]2C[C@@H]4[C@@H]1[C@H]2O [Neoline] | 7.417 ± 0.718 ng·h/mL | 8.058 ± 0.838 ng·h/mL | 3.221 ± 1.040 ng/mL | 0.333 ± 0.118 h | 3.245 ± 0.999 h | 7.559 ± 0.880 ng·h/mL | 7.980 ± 0.757 ng·h/mL | 3.695 ± 1.005 ng/mL | 0.250 ± 0.001 h | 2.486 ± 0.349 h | – | – | – | – | – | – | – | – | – | – | – |
| C[C@]12C[C@@H](O)[C@@H]3C[C@@]1(O[C@@H]1O[C@H](CO)[C@@H](O)[C@H](O)[C@H]1O)[C@@]3(COC(=O)c1ccccc1)C(=O)O2 [Albiflorin] | 424.990 ± 55.691 ng·h/mL | 458.506 ± 69.994 ng·h/mL | 287.831 ± 42.177 ng/mL | 0.250 ± 0.001 h | 2.488 ± 0.458 h | 644.268 ± 174.084 ng·h/mL | 698.946 ± 175.788 ng·h/mL | 306.851 ± 57.880 ng/mL | 0.139 ± 0.072 h | 1.669 ± 0.080 h | – | increased | – | – | – | – | – | – | – | – | Change of AUC 0-t after oral PS [3]: increased; Change of AUC 0-∞ after oral PS [3]: increased |
| COc1ccc(-c2coc3cc(O[C@@H]4O[C@H](CO)[C@@H](O)[C@H](O)[C@H]4O)ccc3c2=O)cc1O [Calycosin-7-glycoside] | 17.473 ± 2.858 ng·h/mL | 18.097 ± 2.629 ng·h/mL | 17.607 ± 2.640 ng/mL | 0.110 ± 0.062 h | 2.342 ± 0.959 h | 15.987 ± 2.778 ng·h/mL | 16.625 ± 2.476 ng·h/mL | 15.506 ± 2.308 ng/mL | 0.083 ± 0.001 h | 2.113 ± 0.779 h | – | – | – | – | – | – | – | – | – | – | – |
| CCN1C[C@]2(COC)[C@H](O)C[C@H](OC)[C@@]34[C@@H]5C[C@@]6(O)[C@H](OC(=O)c7ccccc7)[C@@H]5[C@@](O)([C@@H]([C@H](OC)[C@H]23)[C@@H]14)[C@@H](O)[C@@H]6OC [Benzoylaconine] | 0.764 ± 0.082 ng·h/mL | 1.015 ± 0.158 ng·h/mL | 0.548 ± 0.178 ng/mL | 0.125 ± 0.072 h | 7.430 ± 5.148 h | 1.064 ± 0.136 ng·h/mL | 1.202 ± 0.128 ng·h/mL | 0.720 ± 0.116 ng/mL | 0.083 ± 0.001 h | 3.875 ± 1.842 h | – | – | – | – | – | – | – | – | – | – | – |
